Measured values: patent US20080274112A1, “Nogo Receptor Antagonists” (priority 2003, published 2008)
Each block holds one molecule with its values, some of them ahead of it.

Experiments:
OM-gp + sNogoR344-Fc = target: T1, OM-gp + sNogoR344-Fc (Rattus norvegicus, UniProt Q99M75, A303T/C287S/C43R/E284G/T53A); assay: mAb/Fab inhibition of OM-gp binding to sNogoR344-Fc (ELISA)
T1 construct: amino acid residues 26-344 of rat Nogo receptor-1; made in house
T1 sequence (Q99M75 26-344 C43R/T53A/E284G/C287S/A303T): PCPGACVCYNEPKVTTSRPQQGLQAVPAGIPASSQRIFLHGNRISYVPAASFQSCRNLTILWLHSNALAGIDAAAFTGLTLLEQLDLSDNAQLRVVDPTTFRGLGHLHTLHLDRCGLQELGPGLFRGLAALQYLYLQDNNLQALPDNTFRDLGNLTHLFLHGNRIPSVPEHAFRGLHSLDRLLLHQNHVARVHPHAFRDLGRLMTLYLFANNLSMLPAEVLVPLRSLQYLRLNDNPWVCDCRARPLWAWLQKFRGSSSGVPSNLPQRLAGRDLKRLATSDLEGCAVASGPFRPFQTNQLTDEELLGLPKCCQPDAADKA
Protocol: (§1) 0.5 μg of a soluble Nogo receptor-1 fusion protein comprising amino acid residues 26-344 of rat Nogo receptor-1 and the hinge and Fc region of the rat IgG1 molecule (sNogoR344-Fc) produced as described below was immobilized on 250 μg of protein-A- or wheatgerm agglutinin-conjugated SPA beads (Amersham Pharmacia Biotech) for 2 hours at 25° C. SPA beads coupled with Fc-sNogoR-1, anti-Nogo receptor-1 mAb and 1 μl ^125I-Nogo66 (Amersham, 2000 Ci/mmol, 1 nM) in 50 μl of the HEPES-buffered incubation medium (10 mM HEPES, pH 7.4, 0.1% bovine serum albumin, 0.1% ovalbumin, 2 mM MgCl2, 2 mM CaCl2 and protease inhibitors) was added to each sample well. After 16 hours, radioactivity was measured in quadruplicate samples using a TopCount® (Packard). IC50 values were calculated from a curve-fit analysis (FIG. 3) (PRISM, GraphPad Software, NJ). In some experiments, we also used AP-ligand conjugates (e.g. AP-Nogo66) and detected binding by monitoring alkaline phosphatase activity. We also assayed the ability of the mAbs to block binding of the ligands MAG-Fc and AP-OM-gp to Nogo receptor-1.
(§2) The calculated IC50 for Nogo66 for 7E11 and 1H2 were 400 nM and 60 nM, respectively. The data from ELISAs monitoring mAb-mediated inhibition of binding of the three ligands to Nogo receptor-1 are summarized in Table 6.
(§3) We also performed ELISA binding assays using the Fab-phage 14D5.

DRG neurons = assay: Neurite outgrowth assay, myelin mixed with test protein (Example 10); type: cell-based; settings: P3-4 rat DRG; spotted mixed with CNS myelin
Protocol: Lab-Tek® culture slides (4 wells) were coated with 0.1 mg/ml poly-D-lysine (Sigma®). CNS myelin alone or mixed with sNogoR310, sNogoR310-Fc fusion protein, mAb 5B10 or control PBS were separately spotted as 3 μl drops. Fluorescent microspheres (Polysciences) were added to the myelin/PBS to allow later identification of the drops (Grandpre et al, Nature 403, 2000). Lab-Tek® slides were then rinsed and coated with 10 μg/ml laminin (Gibco™).
Dorsal root ganglions (DRG's) from P3-4 Sprague Dawley rat pups were dissociated with 1 mg/ml collagenase type 1 (Worthington), triturated with fire-polished Pasteur pipettes pre-plated to enrich in neuronal cells and finally plated at 23,000 cells/well on the pre-coated Labtek culture slides. The culture medium was F12 containing 5% heat inactivated donor horse serum, 5% heat inactivated fetal bovine serum and 50 ng/ml MNGF and incubated at 37° C. and 5% CO2 for 6 hours.
Slides were fixed for 20 minutes with 4% paraformaldehyde containing 20% sucrose and stained for the neuronal marker anti beta-III-tubulin (Covance TUJ1) diluted 1:500. As secondary antibody anti-mouse Alexa Fluor® 594 (Molecular Probes) was diluted 1:300 and slides were coverslipped with Gel/Mount™ (Biømeda™). 5× digital images were acquired with OpenLab™ software and analyzed by using the MetaMorph® software for quantification of neurite outgrowth.

Nogo66 + sNogoR344-Fc = target: T2, Nogo66 + sNogoR344-Fc (Rattus norvegicus, UniProt Q99M75, A303T/C287S/C43R/E284G/T53A); assay: mAb/Fab inhibition of Nogo66 binding to sNogoR344-Fc (ELISA)
T2 construct: amino acid residues 26-344 of rat Nogo receptor-1; made in house
T2 sequence (Q99M75 26-344 C43R/T53A/E284G/C287S/A303T): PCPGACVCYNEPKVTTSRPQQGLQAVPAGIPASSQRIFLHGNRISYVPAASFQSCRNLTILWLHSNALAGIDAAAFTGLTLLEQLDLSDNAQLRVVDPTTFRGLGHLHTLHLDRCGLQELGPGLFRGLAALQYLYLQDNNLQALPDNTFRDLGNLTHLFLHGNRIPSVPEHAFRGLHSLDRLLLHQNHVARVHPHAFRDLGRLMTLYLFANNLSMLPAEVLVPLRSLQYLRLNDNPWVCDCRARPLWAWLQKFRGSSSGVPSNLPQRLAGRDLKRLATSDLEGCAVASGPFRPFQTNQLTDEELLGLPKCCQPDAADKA
Protocol: as §1, §2, §3

[1] = target: polypeptide p-617 (SEQ ID NO: 1) (Rattus norvegicus, UniProt Q99M75); assay: Specificity ELISA on polypeptide p-617; type: binding
From the text: To determine the specificity of the monoclonal and Fab-phage antibodies produced in Examples 1 and 2, we performed an ELISA using a panel of Nogo receptor-1 polypeptides. The panel consisted of sNogoR310-Fc (a fusion protein comprising amino acids 26-310 of rat Nogo receptor-1 and a rat Fc fragment), sNogoR344-Fc (see supra), polypeptide p-617 (SEQ ID NO: 1), polypeptide p-618 (a 19-amino acid polypeptide from the LRR7 region of rat Nogo receptor-1; FIG. 2; SEQ ID NO: 11) and polypeptides p-4 and p-5 (polypeptides from the LRR5 and LRRCT regions of Nogo receptor-1, respectively). Ovalbumin and BSA were used as controls.

MAG + sNogoR344-Fc = target: T3, MAG + sNogoR344-Fc (Rattus norvegicus, UniProt Q99M75, A303T/C287S/C43R/E284G/T53A); assay: mAb/Fab inhibition of MAG binding to sNogoR344-Fc (ELISA)
T3 construct: amino acid residues 26-344 of rat Nogo receptor-1; made in house
T3 sequence (Q99M75 26-344 C43R/T53A/E284G/C287S/A303T): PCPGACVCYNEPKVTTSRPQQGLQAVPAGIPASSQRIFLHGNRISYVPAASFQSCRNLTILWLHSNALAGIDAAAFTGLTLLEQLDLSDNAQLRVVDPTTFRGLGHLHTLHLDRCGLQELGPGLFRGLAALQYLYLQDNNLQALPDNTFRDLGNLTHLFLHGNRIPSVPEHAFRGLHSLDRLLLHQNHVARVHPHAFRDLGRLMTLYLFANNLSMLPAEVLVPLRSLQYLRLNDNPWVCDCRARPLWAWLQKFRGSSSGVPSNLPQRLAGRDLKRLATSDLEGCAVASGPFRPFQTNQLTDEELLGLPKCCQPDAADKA
Protocol: as §1, §2, §3

7E11 [2] = assay: 7E11 binding to digest peptides of NgR1 (MS analysis); design: species or system murine; settings: trypsin or Asp-N digest peptides
Protocol: The 7E11 binding site was further analyzed by testing trypsic peptide digests of sNgR310. […] 7E11 bound only a single tryptic digest peptide, providing additional evidence that […] binds to a single epitope on NgR1. Subsequent mass spectroscopy (MS) and sequence analyses identified the bound peptide to be […] (SEQ ID NO: 26).
The LDLSDNAQLRVVDPTT peptide (SEQ ID NO: 1) was subjected to further mapping analysis. The peptide was digested with trypsin, which yielded two major fragments, LDLSDNAQLR (SEQ ID NO: 27) and VVDPTT (SEQ ID NO: 28), and the ability of 7E11 to bind them was tested. […] Within this peptide fraction, detailed MS analysis identified several scrambled peptides that also bound 7E11, including peptides with deamination at Asn115 and Gln117, addition of Alanine at 112 or 113, or addition of Serine at 114 (Table 3).
The LDLSDNAQLRVVDPTT peptide was also digested with the endoprotease Asp-N and 7E11 binding was tested. Endoprotease Asp-N cleaved the peptide into 3 peptide fragments, L, DLS and DNAQLRVVDPTT (SEQ ID NO: 36). Of these products, 7E11 bound the DNAQLRVVDPTT peptide. Taken together, the trypsin and Asp-N cleavage data further localize the 7E11 binding epitope to the sequence shared between them, DNAQLR (SEQ ID NO: 37).

7E11 [3] = assay: 7E11 binding to immobilized point-mutant peptides (EC50); design: species or system murine
Protocol: To verify these contact points, several peptides containing point mutations within the LDLSDNAQLR sequence (SEQ ID NO: 27) were generated and tested for 7E11 binding. The peptides were immobilized on a MaxiSorp™ plate (Nunc®) and serial dilutions of […] were applied. […] The most significant change in EC50 was observed when Arg119 was mutated to Alanine.

Nogo receptor-1 = assay: Blocking of ligand binding to Nogo receptor-1 by soluble receptors

Molecule: 5B10: murine monoclonal anti-Nogo receptor-1 antibody, IgG1 kappa, ATCC PTA-4588; immunogen rat Nogo receptor-1 residues 110-125
inhibition of binding of OM-gp to sNogoR344-Fc (OM-gp + sNogoR344-Fc): inhibited binding
protection from myelin-mediated inhibition of neurite outgrowth (DRG neurons): protected
inhibition of binding of Nogo66 to sNogoR344-Fc (Nogo66 + sNogoR344-Fc): inhibited binding
binding to polypeptide p-617 [1]: specifically bound
inhibition of binding of MAG to sNogoR344-Fc (MAG + sNogoR344-Fc): inhibited binding

Molecule: DNAQLRVVDPTT
binding by 7E11 (7E11 [2]): bound

Molecule: LDLSDNAQLR
binding by 7E11 (7E11 [2]): bound

Continued, values first:

binding by 7E11 (7E11 [2]): bound
Molecule: AAAFGLTLLEQLDLSDNAQLR (AAAFTGLTLLEQLDLSDNAQLR) [tryptic digest peptide of sNgR310]

increase of EC50 versus original peptide (7E11 [3]): 30 fold
Molecule: LDLSDNAALRVVDPTT [Q117A]

increase of EC50 versus original peptide (7E11 [3]): 25 fold
Molecule: LDLSDNAQLHVVDPTT [R119H]

blocking of binding of NogoA, NogoB, NogoC, MAG and OM-gp to Nogo receptor-1 (Nogo receptor-1): block the binding
B1: sNogoR344: soluble Nogo receptor-1 polypeptide, residues 26-344 or 27-344 (protein, listed as Rattus sp.)
chain: PCPGACVCYNEPKVTTSRPQQGLQAVPAGIPASSQRIFLHGNRISYVPAASFQSCRNLTILWLHSNALAGIDAAAFTGLTLLEQLDLSDNAQLRVVDPTTFRGLGHLHTLHLDRCGLQELGPGLFRGLAALQYLYLQDNNLQALPDNTFRDLGNLTHLFLHGNRIPSVPEHAFRGLHSLDRLLLHQNHVARVHPHAFRDLGRLMTLYLFANNLSMLPAEVLVPLRSLQYLRLNDNPWVCDCRARPLWAWLQKFRGSSSGVPSNLPQRLAGRDLKRLATSDLEGCAVASGPFRPFQTNQLTDEELLGLPKCCQPDAADKA
